Experimental data: article PMC10816640, “Discovery of Novel Diphenyl Acrylonitrile Derivatives That Promote Adult Rats’ Hippocampal Neurogenesis” (International Journal of Molecular Sciences, 2024)
“Also recorded” adds a separate entry of the source.

Legend:
[1] = system: newborn neural progenitor cells (differentiation into mature neurons); assay: Differentiation stage of neurogenesis: NeuN/BrdU double staining, rats sacrificed 28 days after BrdU; assay type: in vivo, rat; settings: for neurogenesis-promoting activity (number of NeuN+ and BrdU+ cells), differentiation stage: nine-week-old rats (n = 4), i.p. 4.0 mg/kg
From the text: (§1) Previous in vitro or in vivo studies mainly focused on stimulating the proliferation effect of the small molecules. In this study, a two-step protocol was employed. First, the stimulating function of the compounds on progenitor cells in the rodents’ hippocampi was examined with using bromodeoxyuridine (BrdU) labeling. Next, the potent compounds were further screened to ascertain their ability to promote the differentiation of neural progenitor cells, as confirmed by dual labeling of BrdU and NeuN (neuronal nuclear antigen).
The study employed a rat model, wherein nine-week-old rats were administered intraperitoneally with the compound at a dose of 4.0 mg/kg/day for 28 days and then treated with a pulse of BrdU. Instead of sacrificing the rats 24 h after the BrdU injections, the rats were sacrificed after another 28 days. The brains were then isolated and cryosectioned. Eight randomly selected slices were subjected to immunohistochemical staining. This staining enabled the co-localization of the BrdU-incorporated cells with the NeuN marker, enabling the definition of the compounds that could promote the differentiation of newborn neural progenitor cells into mature functional neurons.
(§2) The compounds were dissolved in reagent-grade soybean oil containing 10% ethanol to reach a drug concentration of 2.8 mg/mL. The rats in the experimental group received intraperitoneal injections of the compounds at a dose of 4.0 mg/kg/d for 28 consecutive days. As a control, the vehicle group was administered injections of reagent-grade soybean oil containing 10% ethanol. BrdU (Sigma-Aldrich, St. louis, MA, USA) solution, prepared in physiological saline at a concentration of 10 mg/mL, was administered to all rats on day 29. Each rat received two injections of BrdU at a dosage of 50 mg/kg, with a 2 h interval between injections. The rats were euthanized 24 h (or 28 days) after the final BrdU injection.
(§3) Two or four rats per group were anesthetized using pentobarbital sodium (70 mg/kg) and subsequently perfused with physiological saline. The brain tissue was carefully dissected and fixed in 4% paraformaldehyde at 4 °C for one week. Next, the brain tissue underwent dehydration using a phosphate-buffered saline (PBS) solution containing 20% to 30% sucrose. Finally, the brain tissue was cryosectioned into slices with a thickness of 30 μm, and eight slices were randomly selected for further analysis.
The differentiation process of NPCs was visualized through the utilization of the NeuN/BrdU double staining technique. Tissue sections were subjected to an incubation period in a blocking buffer at RT for 1 to 2 h. The specimens were exposed to a rabbit anti-NeuN antibody (diluted at 1:500, Abcam, Cambridge, MA, UK) and a primary antibody, BrdU (diluted at 1:500), overnight at 4 °C. Afterwards, the sections were treated with anti-mouse 488 and anti-rabbit TRITC secondary antibodies for 2 h at RT.
(§4) The data were presented as mean ± SEM (standard error of the mean) and visualized using GRAPHPAD PRISM 6 (Graphpad Software, La Jolla, CA, USA). Statistical analysis was conducted utilizing one-way analysis of variance (ANOVA) followed by a post hoc test. Subsequent to the statistical treatment, the observed discrepancies were determined to be statistically significant (p < 0.05).

[2] = system: progenitor cells in the rodents’ hippocampi; assay: Proliferation stage of neurogenesis: BrdU labeling, rats sacrificed 24 h after BrdU; assay type: in vivo, rat; settings: i.p. 4.0 mg/kg/day for 28 days, BrdU pulse, vs vehicle; for proliferation-promoting activity (number of BrdU+ positive cells): nine-week-old rats (n = 4)
From the text: as §1
Adult rats were administered intraperitoneally with the prepared compounds at a dose of 4.0 mg/kg/day for a period of 28 days, followed by a BrdU pulse. After 24 h, the rats were sacrificed, and their brain tissues were isolated and cryosectioned. Immunohistochemical staining was performed and eight brain tissue slices were randomly selected for statistical analyzing.
Eight-week-old (or 10-week-old) SD male rats purchased from Peking University Health Science Center were acclimatized for one week at the Beijing Institute of Technology. All experimental protocols strictly adhered to the regulations governing the management of experimental animals and the animal ethics policy of the Beijing Institute of Technology.
as §2, §3
The assessment of new cell proliferation was conducted using BrdU staining. To eliminate endogenous peroxides, sections were exposed to 1% H2O2 for 30 min at RT. Cellular denaturation was achieved by treating the sections with 2 M HCl at 37 °C for 1 h, followed by rinsing in 0.1 M borate buffer (pH 8.5). Tissue sections were subjected to blocking in a solution consisting of 5% goat serum and 0.5% Triton X-100 in PBS at RT for 1–2 h. The specimens were then incubated overnight at 4 °C with a mouse primary antibody specific to BrdU (diluted at 1:500; Millipore, Billerica, MA, USA). Subsequently, the DAB kit was employed for 2 h of incubation at RT.
as §4

[3] = system: hCMEC/D3 cells; assay: CCK-8 assay for cytotoxicity; assay type: cell-based; settings: hCMEC/D3 cell lines, CCK-8, 48 h incubation
Description: hCMEC/D3 cells were obtained from the Cell Resource Center, Peking Union Medical College (PCRC). All cells were acquired in 2023 and were maintained in culture for no more than 10 continuous passages. The cells were cultured in DMEM (11995065, Gibco, Grand Island, NY, USA) supplemented with 10% FBS (164210-50, Procell, Austin, TX, USA), 100 units of penicillin, and […] of streptomycin (PB180120, Procell).
hCMEC/D3 cells (5 × 10^3) were seeded into 96-well plates in 90 μL of DMEM medium containing 10% fetal bovine serum per well. All test compounds were formulated as 10 mM stock solutions in DMSO (final concentration ≤ 0.5%). After overnight incubation, the test compound stock solution was diluted with DMEM medium containing 10% fetal bovine serum to every target concentration, and 10 μL of each was added to each well. Three parallel experiments were set up for each compound. After incubation for 48 h, 10 μL of CCK-8 reagent was added to each well in sequence according to the manufacturer’s instructions. After incubating in a 37 °C incubator for 1–2 h, the absorbance was measured at a wavelength of 450 nm, using a wavelength of 620 nm as a reference, and detected with a ThermoScientific Multiskan FC (Thermo Fisher Scientific). The graphs are representative results, and this experiment was independently repeated three times with similar results.

[4] = system: newborn cells in the subgranular zone; assay: BrdU+ newborn cells, rats sacrificed 28 days after BrdU; assay type: in vivo, rat; settings: nine-week-old rats (n = 2), i.p. 4.0 mg/kg/day for 28 days, BrdU pulse, Figure 7A
Description: The study employed a rat model, wherein nine-week-old rats were administered intraperitoneally with the compound at a dose of 4.0 mg/kg/day for 28 days and then treated with a pulse of BrdU. Instead of sacrificing the rats 24 h after the BrdU injections, the rats were sacrificed after another 28 days. The brains were then isolated and cryosectioned. Eight randomly selected slices were subjected to immunohistochemical staining. This staining enabled the co-localization of the BrdU-incorporated cells with the NeuN marker, enabling the definition of the compounds that could promote the differentiation of newborn neural progenitor cells into mature functional neurons. The compounds were dissolved in reagent-grade soybean oil containing 10% ethanol to reach a drug concentration of 2.8 mg/mL. The rats in the experimental group received intraperitoneal injections of the compounds at a dose of 4.0 mg/kg/d for 28 consecutive days. As a control, the vehicle group was administered injections of reagent-grade soybean oil containing 10% ethanol. BrdU (Sigma-Aldrich, St. louis, MA, USA) solution, prepared in physiological saline at a concentration of 10 mg/mL, was administered to all rats on day 29. Each rat received two injections of BrdU at a dosage of 50 mg/kg, with a 2 h interval between injections. The rats were euthanized 24 h (or 28 days) after the final BrdU injection. Two or four rats per group were anesthetized using pentobarbital sodium (70 mg/kg) and subsequently perfused with physiological saline. The brain tissue was carefully dissected and fixed in 4% paraformaldehyde at 4 °C for one week. Next, the brain tissue underwent dehydration using a phosphate-buffered saline (PBS) solution containing 20% to 30% sucrose. Finally, the brain tissue was cryosectioned into slices with a thickness of 30 μm, and eight slices were randomly selected for further analysis. The assessment of new cell proliferation was conducted using BrdU staining. To eliminate endogenous peroxides, sections were exposed to 1% H2O2 for 30 min at RT. Cellular denaturation was achieved by treating the sections with 2 M HCl at 37 °C for 1 h, followed by rinsing in 0.1 M borate buffer (pH 8.5). Tissue sections were subjected to blocking in a solution consisting of 5% goat serum and 0.5% Triton X-100 in PBS at RT for 1–2 h. The specimens were then incubated overnight at 4 °C with a mouse primary antibody specific to BrdU (diluted at 1:500; Millipore, Billerica, MA, USA). Subsequently, the DAB kit was employed for 2 h of incubation at RT. The differentiation process of NPCs was visualized through the utilization of the NeuN/BrdU double staining technique. Tissue sections were subjected to an incubation period in a blocking buffer at RT for 1 to 2 h. The specimens were exposed to a rabbit anti-NeuN antibody (diluted at 1:500, Abcam, Cambridge, MA, UK) and a primary antibody, BrdU (diluted at 1:500), overnight at 4 °C. Afterwards, the sections were treated with anti-mouse 488 and anti-rabbit TRITC secondary antibodies for 2 h at RT. The data were presented as mean ± SEM (standard error of the mean) and visualized using GRAPHPAD PRISM 6 (Graphpad Software, La Jolla, CA, USA). Statistical analysis was conducted utilizing one-way analysis of variance (ANOVA) followed by a post hoc test. Subsequent to the statistical treatment, the observed discrepancies were determined to be statistically significant (p < 0.05).

[5] = system: progenitors in rodents’ hippocampi; parameters: method as in PMID 28525839; settings: cited from earlier work

With CC(=O)Nc1ccc(/C(C#N)=C/c2ccc3c(c2)OCO3)cc1 [29a, (Z)-N-(4-(2-(benzo[d][1, 3]dioxol-5-yl)-1-cyanovinyl)phenyl)acetamide] the “neurogenesis-promoting activity (number of NeuN+ and BrdU+ cells), differentiation stage” value ([1]; Figure 9, 4 mg/kg) was “did not show activity; also recorded: no significant neurogenesis-promoting activity” and the “proliferation-promoting activity (number of BrdU+ positive cells)” value ([2]; Figure 8) was “inactive”.
With CC(=O)Nc1ccc(/C=C(\C#N)c2ccc3c(c2)OCO3)cc1 [32a, (Z)-N-(4-(2-(benzo[d][1, 3]dioxol-5-yl)-2-cyanovinyl)phenyl)acetamide] the “neurogenesis-promoting activity (number of NeuN+ and BrdU+ cells), differentiation stage” value ([1]; Figure 9, 4 mg/kg) was “significant neurogenesis-promoting activity; also recorded: better activity than the clinical drug NSI-189”, the IC50 [3] was 109 ± 12.9 µM and the “proliferation-promoting activity (number of BrdU+ positive cells)” value ([2]; Figure 8, 4 mg/kg/day) was “significant proliferation-promoting activity; also recorded: exhibited proliferative activity”.
With CC(C)NC(=O)c1ccc(/C=C/c2ccc3c(c2)OCO3)cc1 [39b, (E)-4-(2-(benzo[d][1, 3]dioxol-5-yl)vinyl)-N-isopropylbenzamide] the “neurogenesis-promoting activity (number of NeuN+ and BrdU+ cells, newborn neurons)” value ([1]; nine-week-old rats (n = 2), i.p. 4.0 mg/kg/day for 28 days, BrdU pulse, Figure 7B) was “ranked second in terms of activity, without statistical significance”, the “proliferation-promoting activity (number of BrdU+ newborn cells)” value ([2]; eleven-week-old rats (n = 2), Figures 3-6, 4 mg/kg/day) was “significant proliferation-promoting activity; also recorded: activity comparable to that found in amides 8c, 8d, and 29b” and the “proliferative activity over the longer 28 day period (number of BrdU+ cells)” value [4] was “could promote the proliferation of progenitors”.
In the case of CC(C)CCNc1ncccc1C(=O)N1CCN(Cc2ccccc2)CC1 [NSI-189, reference compound], the “neurogenesis-promoting activity (number of NeuN+ and BrdU+ cells), differentiation stage” value ([1]; Figure 9) is reported as “no significant neurogenesis-promoting activity” and the “proliferation-promoting activity (number of BrdU+ positive cells)” value ([2]; Figure 8) is reported as “inactive”.
For CC(=O)Nc1ccc(/C=C/c2ccc3c(c2)OCO3)cc1 [WS-6, N-trans-3′,4′-methylenedioxystilben-4-yl acetamide], the “promoting the proliferation of progenitors and differentiation into neurons” value [5] is given as “excellent capacity”.
